Test results: patent US20140056834A1, “COSMETIC COMPOSITION COMPRISING CHRYSOPHANOL AS ACTIVE INGREDIENT FOR SKIN WHITENING” (PUKYONG NATIONAL UNIVERSITY INDUSTRY-UNIVERSITY C, priority 2012, published 2014)

Assays:
B16F1 cells [1] = assay: Determination of cytotoxicity by MTT method; assay type: cell-based, mouse; settings: 10 and 50 μM, 24 h incubation
Protocol: The mouse melanoma B16F1 cells were acquired from the American Type Culture Collection (ATCC, Manassas, Va.) and were cultured in Dulbecco's modification of eagle's medium (DMEM, GIBCO, New York, USA) containing 100 μg/ml penicillin-streptomycin, […] fetal bovine serum (FBS) and maintained at 37° C., 5% CO2. Cytotoxicity levels of the isolated chrysophanol compound from Microsporum sp. on B16F1 cells were measured using MTT (3-(4,5-dimethyl[…])-2,5-diphenyltetrazolium bromide) method. Briefly, B16F1 cells were cultured in 96-well plates at a density of 5×10^3 cells/well. After 24 h, cells were treated with different concentrations (10, 50, 100 μM) of chrysophanol compound. After the next 24 h of incubation, cells were washed two times with PBS and 100 μl of MTT solution (1 mg/ml) was added to each well. After next 4 h of incubation, MTT solution in each well was removed and then 100 μl of dimethyl-sulfoxide (DMSO) were added to solubilize the formazan salt. The optical density was measured at 540 nm by using UV microplate reader (Tecan Austria GmbH, Groedig, Austria). Relative cell viability was calculated compared to the non-treated blank group.

mushroom tyrosinase = assay: Mushroom tyrosinase assay (tyrosinase inhibitory activity); assay type: biochemical; settings: L-tyrosine substrate, different concentrations, 30 min at 37° C.
Protocol: The inhibitory effect on tyrosinase was measured using the spectrophotometric method, based on the hydroxylation of […] in mushroom tyrosinase assay.
A total of 10 μl of each chrysophanol with different concentrations and 20 μl of mushroom tyrosinase (1000 units/ml) in 50 mM phosphate buffer (pH 6.5) were added to 170 μl of an assay mixture containing a ratio of 10:10:9 of 1 mM L-tyrosine solution, 50 mM phosphate buffer (pH 6.5), and distilled water in a 96-well microplate. After 30 min of incubation at 37° C., the absorbance of the mixture was determined at 490 nm using a microplate reader (Tecan Austria GmbH, Austria).

B16F1 cells [2] = assay: Melanin content in α-MSH-stimulated B16F1 cells; assay type: cell-based, mouse; settings: α-MSH 100 nM, 72 h
Protocol: The melanin content was determined in accordance a procedure described previously (Hosoi et al., 1985) with slight modifications.
Briefly, B16F1 cells were seeded at a density of 2×10^4 cells per well in 24-well culture plates and then incubated for 24 h. Then, cells were treated with various concentrations ([…]) of chrysophanol. After 1 h, α-MSH (100 nM) was added and incubated for 72 h. Then, cells were washed twice with PBS and dissolved in 1 N NaOH by 30 min of boiling at 60° C. The cell lysates were centrifuged for 5 min at 5000 g and absorbance of the supernatant was measured at 405 nm.

[3] = system: tyrosinase protein in mouse melanoma B16F1 cells; assay: Tyrosinase protein expression by western blot analysis; assay type: cell-based; settings: α-MSH
Protocol: For the western blot analysis, B16F1 cells were treated with different concentrations of chrysophanol compound, added with α-MSH, incubated for a predetermined time, and then the cells were lysed with RIPA buffer (Sigma-Aldrich Corp., St. Louis, USA) and centrifuged. After the centrifugation, the same amount (15 μg) of protein in cell lysate supernatants were analyzed on 10% SDS-PAGE and proteins were blotted on an immuno-blot nitro-cellulose membrane and blocked with 5% BSA in TBS containing 0.1% Tween 20 (TBS-T) for at least 1 h and hybridized with the primary monoclonal antibodies (Santa Cruz Biotechnology Inc., CA, USA). All the primary monoclonal antibodies were diluted with TBS-T (1:1000). The protein bindings were detected using the secondary antibody conjugated to horseradish peroxidase and enhanced using chemiluminiscence ECL assay kit (Amersham Pharmacia Biosciences, England, UK) according to the manufacturer's instructions and imaged on a LAS-3000® Luminescent image analyzer (Fujifilm, Life Science, Tokyo, Japan). T

In the case of `Cc1cc(O)c2c(c1)C(=O)c1cccc(O)c1C2=O` [chrysophanol], the “cytotoxicity (relative cell viability, MTT)” value (B16F1 cells [1]) is reported as “no cytotoxicity”, the tyrosinase inhibitory activity (mushroom tyrosinase) is reported as “tyrosinase inhibitory activity was observed by chrysophanol in a dose-dependent manner” and the “melanin content compared with positive control kojic acid” value (B16F1 cells [2]; B16F1 cells, 50 μM) is reported as “almost the same as that of kojic acid”. For the same molecule, the melanin content (B16F1 cells [2]; B16F1 cells, 5, 10, 50 μm chrysophanol) was “decrease in melanin content in B16F1 cells by the treatment of chrysphanol in a dose-dependent manner”, the tyrosinase protein expression ([3]; 20 μM) was “significantly inhibited expression of tyrosinase protein” and the tyrosinase protein expression ([3]; different concentrations) was “dose-dependent inhibition of tyrosinase protein expression”.
